Data reported in PubChem BioAssay (NCI).
Several values for one entry are separate records, joined by “and”; a condition that tells them apart may be missing. Equal values may be shown once.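 Protocol summary: plate cells (96-well), add compound at 5 concentrations, incubate 48 h, interpolate endpoints linearly. The concentration for 50% growth inhibition is given as GI50. TGI denotes the concentration required for complete inhibition of growth.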

Legend:
Test in all cases: NCI-60 cell line screen, 48 h
SN12C renal = system: SN12C renal
MOLT-4 leukemia = system: MOLT-4 leukemia
SK-MEL-5 melanoma = system: SK-MEL-5 melanoma
CAKI-1 renal = system: CAKI-1 renal
NCI/ADR-RES ovarian = system: NCI/ADR-RES ovarian
RXF 393 renal = system: RXF 393 renal
BT-549 breast = system: BT-549 breast
T-47D breast = system: T-47D breast
SW-620 colon = system: SW-620 colon
HT29 colon = system: HT29 colon

Structure (SMILES) | GI50 (SN12C renal) [µM] | TGI (SN12C renal) | GI50 (MOLT-4 leukemia) | TGI (MOLT-4 leukemia) [µM] | GI50 (SK-MEL-5 melanoma) [µM] | TGI (SK-MEL-5 melanoma) | GI50 (CAKI-1 renal) [µM] | TGI (CAKI-1 renal) [µM] | GI50 (NCI/ADR-RES ovarian) [µM] | TGI (NCI/ADR-RES ovarian) [µM] | GI50 (RXF 393 renal) [µM] | TGI (RXF 393 renal) [µM] | GI50 (BT-549 breast) [µM] | TGI (BT-549 breast) [µM] | GI50 (T-47D breast) [µM] | TGI (T-47D breast) [µM] | GI50 (SW-620 colon) [µM] | TGI (SW-620 colon) [µM] | GI50 (HT29 colon) [µM] | TGI (HT29 colon)
CO/N=C(/C)COc1ccc2c(c1)oc(=O)c1cc(OC)ccc12 | > 100 | > 100 µM | > 100 µM | > 100 | > 100 | > 100 µM | 97.6 | > 100 | > 100 | > 100 | > 100 | > 100 | > 100 | > 100 | > 100 | > 100 | > 100 | > 100 | > 100 | > 100 µM
COc1cc(/C=C2\CCC/C(=C\c3cc(CN4CCCC4)c(O)c(OC)c3)C2=O)cc(CN2CCCC2)c1O | 4.89 | 21.2 µM | 2.43 µM | 8.98 | 4.12 | 15.5 µM | 5.51 | 17.7 | 3.47 | > 100 | 1.72 | 5.68 | 4.79 | 17.8 | 7.97 | 22.3 | 3.62 | 12.9 | 0.322 | 1.78 µM
CC(=O)Oc1ccc(C2OC(c3ccc4ccccc4c3OC(C)=O)=NN2C(C)=O)c(OC(C)=O)c1 (stereo not drawn) | 0.512 | > 70.6 µM | 0.454 µM | > 100 | 0.321 | > 32.3 µM | 0.24 | 5.44 | 0.394 | > 74.1 | 0.432 | 16.3 | 0.841 | 76.3 | 0.664 | > 52.6 | 0.455 | > 43.3 | 1.62 | > 52.8 µM
CC(=O)OC(COc1ccc2c(c1)[n+]([O-])nc(N)[n+]2[O-])CN1CCCCC1 (stereo not drawn) | – | 40.3 µM | – | 14.8 | – | 14.6 µM | – | > 100 | – | > 100 | – | > 100 | – | > 100 | – | – | – | > 100 | – | 23.1 µM
CC(C)(C)N1CC1CNC(=O)C(=O)NCC1CN1C(C)(C)C (stereo not drawn) | – | 15.7 µM | – | 31.3 | – | 45.2 µM | – | > 96.1 | – | > 54 | – | 5.22 | – | > 92.6 | – | 98.1 | – | > 11 | – | 19.1 µM
COc1ccc2nc3cc([N+](=O)[O-])ccc3c(NCCO)c2c1 | 2.51 | 30.8 µM | 1.14 µM | 6.34 | 1.61 | 3.26 µM | 10.1 | 30 | 10 | – | – | – | 2.88 | 7.02 | 0.539 | 4.65 | 4.08 | 25.7 | 2.34 | 5.13 µM
Nc1nc(N)c2cc(S(=O)(=O)c3ccc4ccccc4c3)ccc2n1 | – | > 100 µM | > 100 µM | > 100 | – | > 65.7 µM | – | > 100 | – | > 100 | 3.81 | 48 | – | > 100 | – | > 29.6 | 0.611 | > 100 | 2.34 | > 100 µM
NS(=O)(=O)c1ccc(N=Nc2c(O)[nH]c3ccc(C(=O)NCCCn4ccnc4)cc23)cc1 | > 25 | > 25 µM | > 25 µM | > 25 | > 25 | > 25 µM | > 25 | > 25 | > 25 | > 25 | > 25 | > 25 | > 25 | > 25 | > 25 | > 25 | > 25 | > 25 | > 25 | > 25 µM
O=C1CCc2cc(Br)ccc2O1 | – | > 100 µM | – | > 100 | – | > 100 µM | – | > 100 | – | – | – | 91.2 | – | > 100 | – | > 100 | – | > 100 | – | > 100 µM
COc1ccc2c(c1)OCC1c3cc(OC)c4ccccc4c3OC21 (stereo not drawn) | 17.1 | 77.4 µM | 9.82 µM | > 100 | 5.11 | 24.2 µM | 5.05 | 44.9 | 4 | 28.2 | 9.41 | 46 | 11.5 | 97.2 | 13.7 | 47 | 3.98 | > 100 | 3.84 | > 100 µM
CCOC(=O)c1c(-c2ccccc2)n2c(=O)cc(C)c3c(O)c(O)cc1c32 | 10.8 | 35.1 µM | 3.81 µM | 17.7 | 4.44 | 16.9 µM | 9.84 | 36.2 | 2.47 | > 100 | 11.9 | 30.9 | 7.08 | 24.1 | 5.43 | > 100 | 4.74 | 18.5 | 7.18 | 84 µM
COc1cc2c(Nc3ccc(-c4ccc(N)cc4)cc3)ncnc2c(OC)c1OC | 11.2 | > 100 µM | 4.05 µM | > 100 | 1.94 | 5.3 µM | 0.655 | > 56.5 | 4.54 | > 100 | 24.9 | > 95.9 | 7.99 | 55 | 5.13 | 86.7 | 0.733 | > 100 | 8.02 | > 81.7 µM
COc1cccc(C(=O)NNc2nc(Cl)nc(N3CCN(C(c4ccccc4)c4ccccc4)CC3)n2)c1 | 1.8 | 3.47 µM | 2.36 µM | 7.54 | 15.9 | 29.7 µM | 1.87 | 4.31 | 2.18 | 5.05 | 2.7 | 8.28 | 1.63 | 3.31 | > 100 | > 100 | 1.9 | 3.98 | 2.12 | 4.8 µM
CCCCCc1cc(/C=C2/N=C(c3ccc[nH]3)C=C2OC)[nH]c1C | – | 0.844 µM | – | 0.134 | – | 0.0422 µM | – | 0.0168 | – | 1.14 | – | 0.197 | – | 0.292 | – | 0.421 | – | 0.206 | – | 0.143 µM
CCN1C(=O)/C(=c2\sc3n(c2=O)C2C(NN=3)N(CC)C(=O)N2CC)c2ccccc21 (stereo not drawn) | 0.615 | > 100 µM | 0.82 µM | > 100 | 0.463 | 7.44 µM | 0.465 | 32.2 | 0.411 | 13.8 | 0.279 | 0.814 | 1.37 | 14.4 | – | – | 0.426 | > 100 | 0.369 | > 100 µM
CCCCCCCCCCCCC(O)C1CCC(C(O)CCCCC(O)CCCCCC2CC(CC(C)=O)C(=O)O2)O1 (stereo not drawn) | 2.54 | 8.27 µM and 20.2 µM | 1.94 µM and 2.05 µM | 35 | 0.112 | 2.11 µM and 5.09 µM | 2.29 | 22.3 | – | 2.3 | 5.33 | 21.4 | – | 5.6 | – | – | 3.29 | 25.4 | 1.37 | 2.65 µM and 15.4 µM
Cn1cc(-c2csc(-c3ccccc3)n2)c2cccnc21 | 15 | 28.2 µM | 10.3 µM | 29 | 13.7 | 26.6 µM | 7.1 | 31.7 | 19.3 | 49.6 | 14.6 | 33.2 | 17.1 | 45.8 | 6.04 | 28.5 | 14.9 | 30.1 | 14.2 | 27.2 µM
CCOC(=O)C#Cc1cccc(C#CC(=O)OCC)c1 | – | 8.21 µM | – | – | – | 8.29 µM | – | 10.2 | – | 14.6 | – | 10.9 | – | 5.1 | – | 98.4 | – | 14.6 | – | 9.07 µM
Cc1ccc(NC(=S)NNC(=S)Nc2ccc(C)cc2)cc1 | – | – | – | – | 4.36 | > 100 µM | 3.66 | > 100 | 2.55 | 8.52 | 5.56 | > 100 | > 100 | > 100 | 14.4 | > 100 | 3.81 | > 100 | 3.61 | > 100 µM
Clc1nc(Cl)c2ncn(-c3ccccc3)c2n1 | 7.45 | 21.5 µM | 7.95 µM | 52.3 | 10.4 | 22.3 µM | – | – | 1.85 | 3.55 | 5.66 | 18.8 | 15.9 | 29.5 | 2.95 | 8.63 | 2.08 | 5.74 | 3.87 | 13.5 µM
O=C(/C=C(/C=C/c1cccc2[nH]ccc12)OB(F)F)/C=C/c1cccc2[nH]ccc12 | 0.687 | 5.45 µM | 0.385 µM | 3.72 | 1.26 | 2.73 µM | 0.876 | 3.13 | 0.399 | > 100 | – | – | 1.03 | 4.09 | 0.796 | 26.8 | 0.393 | 1.58 | 0.516 | 3.92 µM
CCOC(=O)C1=C(C)NC2SC(=O)/C(=C\c3cccc(Cl)c3)N2C1c1ccccc1 (stereo not drawn) | > 100 | > 100 µM | – | – | 58.7 | > 100 µM | > 100 | > 100 | > 100 | > 100 | > 100 | > 100 | > 100 | > 100 | > 100 | > 100 | > 100 | > 100 | > 100 | > 100 µM
COC(=O)C1C(C(=O)O)C2(c3ccccc3)C(=O)C1(c1ccccc1)C(c1ccc(OC)cc1)=C2c1ccc(OC)cc1 (stereo not drawn) | 20.5 | 49 µM | 18 µM | 43.4 | 16.8 | 32.4 µM | 20.9 | 43.6 | 20.6 | 43.6 | 16.1 | 34.8 | 15.8 | 33.6 | – | – | 23.2 | 46.6 | – | –
c1cc[n+](Cc2c3ccccc3cc3c2ccc2ccccc23)cc1 | 0.506 | 4.73 µM | 3.26 µM | 14.7 | 1.77 | 3.89 µM | – | – | > 100 | > 100 | 8.61 | 47.5 | 1.73 | 4.6 | 2.34 | 7.92 | 6.16 | 21.9 | 2.77 | 11.2 µM
CC1(C)N=C(N)N=C(N)N1c1ccc(OCC(=O)Nc2ccc(S(=O)(=O)F)cc2Cl)c(Cl)c1 | 4.41 | > 100 µM | 6.74 µM | > 100 | 1.15 | > 100 µM | – | – | 61.1 | > 100 | 17.5 | > 100 | 58.4 | > 100 | > 100 | > 100 | 1.08 | > 100 | 2.57 | > 100 µM
COc1cc(-c2oc3c(OC)c(O)c(OC)c(O)c3c(=O)c2OC)cc(OC)c1OC | – | > 100 µM | – | > 100 | – | > 100 µM | – | > 100 | – | > 100 | – | – | – | > 100 | – | > 100 | – | > 100 | – | > 100 µM
O=C(Cc1cc(O)ccc1O)NO | 18.2 | 33.8 µM | 19.7 µM | 41 | > 100 | > 100 µM | 26.9 | 81.9 | > 100 | > 100 | 71.7 | > 100 | 85.7 | > 100 | – | – | 25.1 | 54.1 | – | –
C[n+]1cccc(NC(=O)c2ccc3ccc4ccc(C(=O)Nc5ccc[n+](C)c5)nc4c3n2)c1 | 0.157 | 1.32 µM | 21.3 µM | > 100 | – | – | 4.93 | > 100 | > 100 | > 100 | 1.98 | 4.75 | 24 | > 100 | 0.52 | > 100 | 2.91 | > 100 | 2.38 | > 100 µM
CCN1CCN(Cc2ccc(NC(=O)Nc3nc(-c4cc(OC)c(OC)c(OC)c4)cs3)cc2C(F)(F)F)CC1 | 1.45 | 3.19 µM | 1.29 µM | 3.69 | 1.67 | 3.04 µM | 1.91 | 4.9 | – | – | 1.41 | 2.84 | 1.91 | 4.58 | – | – | 1.62 | 3.31 | 0.39 | 1.48 µM
